In PubChem BioAssay (NCI):
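Results reflect a 48-hour exposure of cells in 96-well plates to compound at five concentrations. TGI marks complete inhibition of growth.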

Tests used:
Assay in all cases: NCI anticancer screen, dose series, 48 h
SK-MEL-5 melanoma = system: SK-MEL-5 melanoma
OVCAR-3 ovarian = system: OVCAR-3 ovarian
HOP-62 NSCLC = system: HOP-62 NSCLC
UO-31 renal = system: UO-31 renal
UACC-257 melanoma = system: UACC-257 melanoma
KM12 colon = system: KM12 colon
EKVX NSCLC = system: EKVX NSCLC
786-0 renal = system: 786-0 renal
MALME-3M melanoma = system: MALME-3M melanoma
MDA-N = system: MDA-N
HCT-116 colon = system: HCT-116 colon
SK-OV-3 ovarian = system: SK-OV-3 ovarian
IGROV1 ovarian = system: IGROV1 ovarian
CCRF-CEM leukemia = system: CCRF-CEM leukemia
RPMI-8226 leukemia = system: RPMI-8226 leukemia
CAKI-1 renal = system: CAKI-1 renal
SN12C renal = system: SN12C renal
HCC-2998 colon = system: HCC-2998 colon
SK-MEL-28 melanoma = system: SK-MEL-28 melanoma

In the case of Cc1ccc2c(=O)cc(-c3cccs3)[nH]c2n1, the TGI (SK-MEL-5 melanoma) is reported as greater than 81.9 µM, the TGI (OVCAR-3 ovarian) is reported as greater than 100 µM and the TGI (HOP-62 NSCLC) is reported as greater than 100 µM. The TGI (UO-31 renal) was 35.6 µM, the TGI (UACC-257 melanoma) was greater than 100 µM and the TGI (KM12 colon) was greater than 100 µM. It also gave a TGI (EKVX NSCLC) greater than 100 µM, a TGI (786-0 renal) greater than 100 µM and a TGI (MALME-3M melanoma) greater than 100 µM. It also gave a TGI (MDA-N) of 3.78 µM, a TGI (HCT-116 colon) greater than 100 µM and a TGI (SK-OV-3 ovarian) greater than 100 µM. It also gave a TGI (IGROV1 ovarian) greater than 100 µM, a TGI (CCRF-CEM leukemia) greater than 87.6 µM and a TGI (RPMI-8226 leukemia) greater than 49.4 µM. The TGI (CAKI-1 renal) was greater than 100 µM, the TGI (SN12C renal) was greater than 100 µM and the TGI (HCC-2998 colon) was greater than 83.2 µM. The TGI (SK-MEL-28 melanoma) was greater than 100 µM.
